Data set [1] in a line: Metabolic stability in human liver microsomes assessed as half-life measured upto 40 mins by LC-MS/MS analysis. Type of data set: ADME, Microsome.
A short description of data set [2]: Metabolic stability in rat liver microsomes assessed as half-life measured upto 40 mins by LC-MS/MS analysis. Format: ADME, Microsome. Background: Microsomes from liver hold many membrane-bound enzymes, among them those of drug oxidation.
The nature of data set [3]: Metabolic stability in mouse liver microsomes assessed as half-life measured upto 40 mins by LC-MS/MS analysis. Format: ADME, Microsome.
A short description of data set [4]: Metabolic stability in human liver microsomes assessed as intrinsic clearance measured upto 40 mins by LC-MS/MS analysis. Format: ADME, Microsome. The note with it: read-out: CLH.
A short description of data set [5]: Metabolic stability in rat liver microsomes assessed as intrinsic clearance measured upto 40 mins by LC-MS/MS analysis. Format: ADME, Microsome. As to conditions: read-out: CLH.
The nature of data set [6]: Metabolic stability in mouse liver microsomes assessed as intrinsic clearance measured upto 40 mins by LC-MS/MS analysis. Type of data set: ADME, Microsome. As to conditions: read-out: CLH.
In the next data set the target is Histone deacetylase 1 (Homo sapiens, UniProt Q13547). Kind of data set: Inhibition of HDAC1 (unknown origin).
Chain of Histone deacetylase 1 (Q13547 whole entry): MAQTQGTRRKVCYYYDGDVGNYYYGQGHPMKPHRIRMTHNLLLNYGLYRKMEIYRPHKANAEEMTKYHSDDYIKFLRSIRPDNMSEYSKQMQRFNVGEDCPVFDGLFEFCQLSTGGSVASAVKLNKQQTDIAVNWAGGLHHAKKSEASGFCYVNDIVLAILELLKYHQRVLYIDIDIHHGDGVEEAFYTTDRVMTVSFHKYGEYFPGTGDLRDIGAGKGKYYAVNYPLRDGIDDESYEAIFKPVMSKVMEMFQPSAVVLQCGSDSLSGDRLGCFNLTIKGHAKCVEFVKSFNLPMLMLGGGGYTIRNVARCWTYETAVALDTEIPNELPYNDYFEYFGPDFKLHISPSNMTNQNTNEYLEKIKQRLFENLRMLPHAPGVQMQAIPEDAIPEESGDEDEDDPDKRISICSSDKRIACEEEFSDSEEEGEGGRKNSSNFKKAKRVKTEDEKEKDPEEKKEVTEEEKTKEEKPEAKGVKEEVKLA
In the next data set the target is Histone deacetylase 2 (Homo sapiens, UniProt Q92769). The data set is described as follows: Inhibition of HDAC2 (unknown origin).
Chain of Histone deacetylase 2 (Q92769 whole entry): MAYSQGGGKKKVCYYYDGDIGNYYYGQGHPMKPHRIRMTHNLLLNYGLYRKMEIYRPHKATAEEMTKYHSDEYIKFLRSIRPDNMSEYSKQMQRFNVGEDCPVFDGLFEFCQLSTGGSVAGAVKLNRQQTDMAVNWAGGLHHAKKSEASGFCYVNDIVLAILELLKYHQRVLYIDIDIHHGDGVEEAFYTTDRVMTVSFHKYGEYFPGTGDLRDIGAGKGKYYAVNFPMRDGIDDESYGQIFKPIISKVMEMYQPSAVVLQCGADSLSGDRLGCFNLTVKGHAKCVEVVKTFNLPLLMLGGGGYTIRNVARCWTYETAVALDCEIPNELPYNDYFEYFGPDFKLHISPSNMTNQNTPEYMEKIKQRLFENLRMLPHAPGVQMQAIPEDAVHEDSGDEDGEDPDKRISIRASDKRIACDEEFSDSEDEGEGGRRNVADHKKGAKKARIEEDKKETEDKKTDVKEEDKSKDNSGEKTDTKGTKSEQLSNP
A further data set has as its target Histone deacetylase 3 (Homo sapiens, UniProt O15379). The data set is described as follows: Inhibition of HDAC3 (unknown origin).
Another data set deals with Histone deacetylase 8 (Homo sapiens, UniProt Q9BY41). Kind of data set: Inhibition of HDAC8 (unknown origin).
Chain of Histone deacetylase 8 (Q9BY41 whole entry): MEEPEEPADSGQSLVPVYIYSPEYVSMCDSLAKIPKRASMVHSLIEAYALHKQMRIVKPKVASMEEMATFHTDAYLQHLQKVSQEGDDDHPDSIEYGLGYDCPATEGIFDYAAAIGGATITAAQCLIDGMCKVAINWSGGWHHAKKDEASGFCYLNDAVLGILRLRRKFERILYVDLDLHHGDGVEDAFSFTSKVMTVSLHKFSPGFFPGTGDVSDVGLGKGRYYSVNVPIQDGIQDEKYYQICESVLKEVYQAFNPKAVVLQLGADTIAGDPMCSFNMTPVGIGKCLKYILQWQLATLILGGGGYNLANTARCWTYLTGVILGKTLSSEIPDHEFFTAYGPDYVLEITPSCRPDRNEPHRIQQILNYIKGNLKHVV
The target of the next data set is Histone deacetylase 4 (Homo sapiens, UniProt P56524). The data set is described as follows: Inhibition of HDAC4 (unknown origin).
The next data set addresses Histone deacetylase 5 (Homo sapiens, UniProt Q9UQL6). Kind of data set: Inhibition of HDAC5 (unknown origin).
The target in a further data set is Histone deacetylase 7 (Homo sapiens, UniProt Q8WUI4). The data set is described as follows: Inhibition of HDAC7 (unknown origin).
Chain of Histone deacetylase 7 (Q8WUI4 whole entry): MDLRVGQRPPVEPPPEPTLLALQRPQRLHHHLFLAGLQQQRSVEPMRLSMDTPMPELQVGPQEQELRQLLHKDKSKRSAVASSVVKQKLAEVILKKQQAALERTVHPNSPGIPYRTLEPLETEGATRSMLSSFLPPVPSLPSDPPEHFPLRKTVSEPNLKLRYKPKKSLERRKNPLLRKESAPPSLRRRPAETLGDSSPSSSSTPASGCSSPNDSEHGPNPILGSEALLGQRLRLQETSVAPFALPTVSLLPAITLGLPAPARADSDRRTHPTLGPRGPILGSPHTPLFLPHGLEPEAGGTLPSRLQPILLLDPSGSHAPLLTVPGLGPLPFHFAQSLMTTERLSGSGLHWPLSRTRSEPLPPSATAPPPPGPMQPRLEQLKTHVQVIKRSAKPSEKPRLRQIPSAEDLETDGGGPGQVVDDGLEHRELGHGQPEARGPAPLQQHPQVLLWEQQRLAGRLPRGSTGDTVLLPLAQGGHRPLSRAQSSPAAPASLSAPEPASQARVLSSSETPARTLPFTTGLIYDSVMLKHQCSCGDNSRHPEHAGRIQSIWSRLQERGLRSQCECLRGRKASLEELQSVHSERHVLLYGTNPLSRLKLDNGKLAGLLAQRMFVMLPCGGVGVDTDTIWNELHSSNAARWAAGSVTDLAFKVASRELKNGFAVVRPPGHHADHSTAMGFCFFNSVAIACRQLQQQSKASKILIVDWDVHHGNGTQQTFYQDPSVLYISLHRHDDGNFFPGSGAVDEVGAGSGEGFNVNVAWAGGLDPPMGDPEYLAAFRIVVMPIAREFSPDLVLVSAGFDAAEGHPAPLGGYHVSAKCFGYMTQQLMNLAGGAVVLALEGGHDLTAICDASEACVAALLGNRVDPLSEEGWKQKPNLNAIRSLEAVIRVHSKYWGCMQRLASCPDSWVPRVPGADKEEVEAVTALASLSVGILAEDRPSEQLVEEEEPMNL
For the next data set, the target named is Histone deacetylase 9 (Homo sapiens, UniProt Q9UKV0). Kind of data set: Inhibition of HDAC9 (unknown origin).
Chain of Histone deacetylase 9 (Q9UKV0 whole entry): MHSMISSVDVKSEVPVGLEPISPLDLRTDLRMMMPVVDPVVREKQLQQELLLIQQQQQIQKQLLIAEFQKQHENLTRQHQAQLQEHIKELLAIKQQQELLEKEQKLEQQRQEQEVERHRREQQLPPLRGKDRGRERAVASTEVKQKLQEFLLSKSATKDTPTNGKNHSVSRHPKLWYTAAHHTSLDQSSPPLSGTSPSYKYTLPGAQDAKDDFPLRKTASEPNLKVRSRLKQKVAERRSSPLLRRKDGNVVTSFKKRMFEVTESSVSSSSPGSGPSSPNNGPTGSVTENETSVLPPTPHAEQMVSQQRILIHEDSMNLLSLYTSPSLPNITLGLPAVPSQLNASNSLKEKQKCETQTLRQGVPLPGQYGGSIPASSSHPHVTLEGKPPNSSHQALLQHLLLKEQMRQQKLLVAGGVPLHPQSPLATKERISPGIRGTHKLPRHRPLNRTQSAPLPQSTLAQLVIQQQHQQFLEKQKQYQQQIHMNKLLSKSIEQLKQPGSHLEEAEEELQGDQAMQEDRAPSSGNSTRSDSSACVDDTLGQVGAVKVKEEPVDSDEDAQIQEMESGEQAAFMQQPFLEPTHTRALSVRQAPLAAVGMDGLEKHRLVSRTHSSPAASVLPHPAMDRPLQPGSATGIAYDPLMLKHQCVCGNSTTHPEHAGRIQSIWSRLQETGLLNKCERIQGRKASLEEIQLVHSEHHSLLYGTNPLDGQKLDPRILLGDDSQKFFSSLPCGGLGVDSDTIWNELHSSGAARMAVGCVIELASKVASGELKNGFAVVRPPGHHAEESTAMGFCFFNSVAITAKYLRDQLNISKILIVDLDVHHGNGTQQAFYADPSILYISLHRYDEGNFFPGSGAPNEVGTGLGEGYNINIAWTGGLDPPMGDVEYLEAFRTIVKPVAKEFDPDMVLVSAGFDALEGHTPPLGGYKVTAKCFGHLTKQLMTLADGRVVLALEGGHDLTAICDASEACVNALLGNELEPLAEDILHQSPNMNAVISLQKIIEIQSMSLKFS
Data set [7] deals with Protein deacetylase HDAC6 (Homo sapiens, UniProt Q9UBN7). Kind of data set: Inhibition of HDAC6 (unknown origin).
Data set [8] deals with Polyamine deacetylase HDAC10 (Homo sapiens, UniProt Q969S8). Kind of data set: Inhibition of HDAC10 (unknown origin).
Chain of Polyamine deacetylase HDAC10 (Q969S8 whole entry): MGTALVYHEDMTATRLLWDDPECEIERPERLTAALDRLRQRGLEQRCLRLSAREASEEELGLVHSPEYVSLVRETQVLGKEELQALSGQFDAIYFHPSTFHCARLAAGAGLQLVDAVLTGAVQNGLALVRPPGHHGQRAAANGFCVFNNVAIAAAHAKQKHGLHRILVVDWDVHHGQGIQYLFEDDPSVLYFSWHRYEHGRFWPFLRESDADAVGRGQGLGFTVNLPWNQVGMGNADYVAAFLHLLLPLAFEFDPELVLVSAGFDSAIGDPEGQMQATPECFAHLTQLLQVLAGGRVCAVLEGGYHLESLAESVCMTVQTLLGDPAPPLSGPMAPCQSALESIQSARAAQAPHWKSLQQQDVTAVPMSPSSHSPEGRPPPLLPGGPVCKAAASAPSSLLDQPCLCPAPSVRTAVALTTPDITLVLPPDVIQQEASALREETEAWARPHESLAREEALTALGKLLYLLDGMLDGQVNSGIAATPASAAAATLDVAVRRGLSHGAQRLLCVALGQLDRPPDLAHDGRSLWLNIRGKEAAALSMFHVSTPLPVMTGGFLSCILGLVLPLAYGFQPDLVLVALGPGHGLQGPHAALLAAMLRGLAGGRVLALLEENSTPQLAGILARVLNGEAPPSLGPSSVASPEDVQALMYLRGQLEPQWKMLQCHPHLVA
For a further data set, the target named is Histone deacetylase 11 (Homo sapiens, UniProt Q96DB2). Kind of data set: Inhibition of HDAC11 (unknown origin).
Chain of Histone deacetylase 11 (Q96DB2 whole entry): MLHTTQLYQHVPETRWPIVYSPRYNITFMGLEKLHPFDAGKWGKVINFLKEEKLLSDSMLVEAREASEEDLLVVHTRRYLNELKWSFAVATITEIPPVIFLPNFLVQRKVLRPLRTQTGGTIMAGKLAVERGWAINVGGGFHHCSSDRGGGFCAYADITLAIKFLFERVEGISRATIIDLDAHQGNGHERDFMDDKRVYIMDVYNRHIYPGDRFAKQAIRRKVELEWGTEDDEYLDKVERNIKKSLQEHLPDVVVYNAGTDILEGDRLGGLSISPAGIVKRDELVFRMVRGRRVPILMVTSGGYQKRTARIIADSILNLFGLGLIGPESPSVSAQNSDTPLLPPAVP
Data set [9] has as its system PANC-1. The data set is described as follows: Cell cycle arrest in human PANC-1 cells assessed as accumulation of cells at GO-G1 phase at 2 uM incubated for 24 hrs by PI/RNase staining based flow cytometric analysis. Format: functional.
Data set [10] relates to PANC-1. The data set is described as follows: Induction of apoptosis in human PANC-1 cells assessed as apoptotic cells at 2 uM incubated for 24 hrs by flow cytometric analysis relative to control. Format: functional. On the technique in general: Flow cytometry measures light scatter and fluorescence of single cells or particles in a stream.
The subject of data set [11] is HT-29. The data set is described as follows: Induction of apoptosis in human HT-29 cells assessed as apoptotic ratio at 2 uM incubated for 24 hrs by flow cytometric analysis. Type of data set: functional.
Data set [12] has as its system PANC-1. Kind of data set: Induction of apoptosis in human PANC-1 cells assessed as increase in Bax expression at 2 uM incubated for 24 hrs by Western blot analysis. Format: functional, cell-based. Background: In western blotting, separated proteins are transferred to a membrane and probed.
Data set [13] relates to PANC-1. The data set is described as follows: Induction of apoptosis in human PANC-1 cells assessed as increase in Cytochrome C expression level at 2 uM incubated for 24 hrs by Western blot analysis. Format: functional, cell-based.
The subject of data set [14] is PANC-1. The data set is described as follows: Induction of apoptosis in human PANC-1 cells assessed as increase in cleaved caspase-9 expression level at 2 uM incubated for 24 hrs by Western blot analysis. Format: functional, cell-based.
The subject of data set [15] is PANC-1. Kind of data set: Induction of apoptosis in human PANC-1 cells assessed as increase in cleaved caspase-3 expression level at 2 uM incubated for 24 hrs by Western blot analysis. Format: functional, cell-based.
The subject of data set [16] is PANC-1. Kind of data set: Induction of apoptosis in human PANC-1 cells assessed as increase in cleaved PARP expression level at 2 uM incubated for 24 hrs by Western blot analysis. Format: functional, cell-based.
For data set [17], the system named is HT-29. Kind of data set: Antitumor activity against human HT-29 cells xenografted in BALB/c nude mouse assessed as tumor growth inhibition at 7.5 mg/kg, ip administered once a day for 24 days relative to control. Format: functional. As to conditions: HT-29, 576 h, time 24 day, read-out: TGI.
For data set [18], the system named is HT-29. The data set is described as follows: Antitumor activity against human HT-29 cells xenografted in BALB/c nude mouse assessed as tumor growth inhibition at 7.5 mg/kg, ip administered once a day for 24 days in presence of SAHA relative to control. As to conditions: HT-29, 576 h, time 24 day, read-out: TGI. Type of data set: functional.
The test system of a further data set is A549. Kind of data set: cells. The note with it: Homo sapiens, A549, 72 h.
The test system of the next data set is NCI-H1975. Kind of data set: cells. As to conditions: Homo sapiens, NCI-H1975, 72 h.
A further data set deals with A-431. The data set is described as follows: cells. As to conditions: Homo sapiens, A-431, 72 h.
For a further data set, the system named is SGC-7901. Kind of data set: cells. The note with it: Homo sapiens, SGC-7901, 72 h.
For another data set, the system named is HepG2. The data set is described as follows: cells. As to conditions: Homo sapiens, HepG2, 72 h.
Another data set relates to MCF7. Kind of data set: cells. The note with it: Homo sapiens, MCF7, 72 h.
The subject of the next data set is L02. Kind of data set: cells. As to conditions: Homo sapiens, L02, 72 h.
For data set [19], the system named is PANC-1. Kind of data set: cells. The note with it: Homo sapiens, PANC-1, 72 h.
Description: Cytotoxicity against human PANC-1 cells assessed as inhibition of cell growth incubated for 72 hrs by MTT assay
The test system of data set [20] is HT-29. The data set is described as follows: cells. As to conditions: Homo sapiens, HT-29, 72 h.
Description: Cytotoxicity against human HT-29 cells assessed as inhibition of cell growth incubated for 72 hrs by MTT assay
The subject of the next data set is K562. The data set is described as follows: cells. As to conditions: Homo sapiens, K562, 72 h.
A further data set has as its system MV4-11. The data set is described as follows: cells. As to conditions: Homo sapiens, MV4-11, 72 h.

From ChEMBL document CHEMBL5537193, “Multitargeting HDAC Inhibitors Containing a RAS/RAF Protein Interfering Unit” (J Med Chem, 2024) come the findings set out here.

Calls of active or inactive are those of the source. The rule behind the calls is not given here.

The half-life is how long it takes for the measured level to halve. In general, IC50 refers to the concentration that gives 50% inhibition. Low values mean higher potency, high ones lower potency.

Chain of Histone deacetylase 3 (O15379 whole entry): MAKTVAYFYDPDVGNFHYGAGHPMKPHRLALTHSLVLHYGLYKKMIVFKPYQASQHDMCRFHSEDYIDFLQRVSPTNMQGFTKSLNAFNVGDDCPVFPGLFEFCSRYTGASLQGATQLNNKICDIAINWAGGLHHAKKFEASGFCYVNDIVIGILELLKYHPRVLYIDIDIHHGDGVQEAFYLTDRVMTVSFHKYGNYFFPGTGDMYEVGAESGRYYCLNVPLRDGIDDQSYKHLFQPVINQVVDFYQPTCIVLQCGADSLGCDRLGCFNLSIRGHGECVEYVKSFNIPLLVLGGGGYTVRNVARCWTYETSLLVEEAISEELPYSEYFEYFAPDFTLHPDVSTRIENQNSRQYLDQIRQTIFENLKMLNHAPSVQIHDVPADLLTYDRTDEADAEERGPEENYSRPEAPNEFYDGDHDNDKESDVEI
Description for A-431: Cytotoxicity against human A-431 cells assessed as inhibition of cell growth incubated for 72 hrs by MTT assay
Description for A549: Cytotoxicity against human A549 cells assessed as inhibition of cell growth incubated for 72 hrs by MTT assay
Description for HepG2: Cytotoxicity against human HepG2 cells assessed as inhibition of cell growth incubated for 72 hrs by MTT assay
Description for K562: Cytotoxicity against human K562 cells assessed as inhibition of cell growth incubated for 72 hrs by MTT assay
Description for L02: Cytotoxicity against human L02 cells assessed as inhibition of cell growth incubated for 72 hrs by MTT assay
Description for MCF7: Cytotoxicity against human MCF7 cells assessed as inhibition of cell growth incubated for 72 hrs by MTT assay
Description for MV4-11: Cytotoxicity against human MV4-11 cells assessed as inhibition of cell growth incubated for 72 hrs by MTT assay
Description for NCI-H1975: Cytotoxicity against human NCI-H1975 cells assessed as inhibition of cell growth incubated for 72 hrs by MTT assay
Description for SGC-7901: Cytotoxicity against human SGC-7901 cells assessed as inhibition of cell growth incubated for 72 hrs by MTT assay

For the molecule `O=C(c1ccc(F)cc1)C1CCN(CCn2c(=O)[nH]c3ccccc3c2=O)CC1` [KETANSERIN], the half-life was 36.6 min in data set [1], 17.6 min in data set [2] and 20.6 min in data set [3]. Besides, the CLint scaled in data set [4] was found to be 47.5 mL/min/kg; in data set [5], 141 mL/min/kg; in data set [6], 265 mL/min/kg.
`COc1cc(OC)c(/C=C/S(=O)(=O)Cc2ccc(OC)c(NCC(=O)O)c2)c(OC)c1` [RIGOSERTIB]: the IC50 against Histone deacetylase 1, against Histone deacetylase 2, against Histone deacetylase 3, at Histone deacetylase 8, on Histone deacetylase 4 and against Histone deacetylase 5 was > 10000 nM in each case. Besides, the IC50 on Histone deacetylase 7 was > 10000 nM; against Histone deacetylase 9 it was > 10000 nM; in data set [7], > 10000 nM; in [8], > 10000 nM; at Histone deacetylase 11, > 10000 nM; with A549 it was 370 nM. For the same molecule, the half-inhibitory concentration (IC50) in the data set with NCI-H1975 was 230 nM; in the data set with A-431, 360 nM; in the data set on SGC-7901, 250 nM; in the data set on HepG2, 1340 nM; in the data set on MCF7 it was 260 nM; with L02, > 40000 nM. Moreover, the IC50 in the data set with PANC-1 [19] turned out to be 260 nM; in the data set with HT-29 [20], 160 nM; in the data set with K562 it was 150 nM; with MV4-11 it was 1150 nM. Further, the result in the data set with PANC-1 [9], in the data set on PANC-1 [12], in the data set on PANC-1 [13], with PANC-1 [14], in the data set with PANC-1 [15] and in the data set with PANC-1 [16] was Active. For the same molecule, the Activity with PANC-1 [10] worked out at 41.4%; with HT-29 [11], 34.8%. Also, the inhibition in vivo at 7.5 mg/kg with HT-29 [17] came to 46%; in the data set with HT-29 [18] it was 77.9%.
